From paper PMC6274355, “Synthesis and Anti-HIV-1 Activity Evaluation for Novel 3a,6a-Dihydro-1H-pyrrolo[3,4-c]pyrazole-4,6-dione Derivatives” (Molecules, 2016) come the findings set out here.

Each structure is given as a SMILES string.

The subject of one data set is HIV-1IIIB. Description: Syncytia inhibition assay (HIV-1IIIB infected C8166 cells). It counts as cell-based. To be noted: for TI (in vitro therapeutic index, CC50 value/EC50 value): CC50 in C8166 cells / EC50 syncytia inhibition; for EC50: Human immunodeficiency virus 1, C8166, 72 h, HIV-1IIIB infected C8166 cells, 72 h, means of two separate experiments, read-out: EC50 (50% effective concentration, reduces syncytia formation by 50%). Here is the method:
Target compounds 6–16 were evaluated for their inhibitory activity against HIV-1 replication in acutely infected C8166 cells in vitro according to the previously described method, and AZT was used as a positive control. The assay results of the target compounds are presented in Table 1 and Table 2, expressed as CC50, EC50 and therapeutic index (TI).
The syncytia inhibition assay was applied by counting syncytia which were formed by HIV-1IIIB infected C8166 cells. Briefly, HIV-1IIIB supernatant and C8166 cells were seeded in a 96-well plate with different concentration of compounds. The plate was incubated in a 37 °C, 5% CO2 incubator for 72 h. Syncytia were counting under an inverted microscope and 50% effective concentration (EC50) was calculated. Therapeutic index (TI) was calculated by the ratio of CC50/EC50.

The next data set can be described thus: Cytotoxicity assay (MTT). To be noted: human; C8166 cells, MTT, 72 h; means of two separate experiments; read-out: CC50 (50% cytotoxic concentration). It counts as cell-based. The procedure:
The cytotoxicty assay was performed by 3-(4,5-dimethylthiazol-2-yl)-2,5-diphenyl tetrazoliumbromide (MTT) method. Briefly, 100 μL 4 × 10^4 C8166 cells were seeded each well with 100 μL of different concentrations of compounds in a 96-well plate. The plate was incubated 72 h at 37 °C, 5% CO2 incubator. MTT (20 μL, 5 mg/mL) was added to each well and the plate was incubated at 37 °C for 4 h. Supernatant (100 μL) was discarded and 20% SDS-50% DMF (100 μL) was added. The plates were read at 570/630 nm by a Bio-Tek Elx 800 reader (Bio-Tek Instruments, Inc., Winooski, VT, USA). The 50% cytotoxic concentration (CC50) was calculated.

For `O=C1C2C(c3nccs3)=NN(c3ccc(F)cc3)C2C(=O)N1CCc1ccc(F)cc1` (stereo not drawn) [14a, 1-(4-Fluorophenyl)-5-[2-(4-fluorophenyl)ethyl]-3-thiazol-2-yl-3a,6a-dihydro-1H-pyrrolo[3,4-c]pyrazole-4,6-dione], in the data set on HIV-1IIIB, the “TI (in vitro therapeutic index, CC50 value/EC50 value)” value is reported as 4.46 and the EC50 stood at 35.6 µM. Further, the CC50 at 72 h in the data set “Cytotoxicity assay (MTT)” worked out at 158 µM.
The matching figures for `O=C1C2C(c3ccccn3)=NN(c3ccc(F)cc3)C2C(=O)N1CCc1ccc(F)cc1` (stereo not drawn) [14b, 1-(4-Fluorophenyl)-5-[2-(4-fluorophenyl)ethyl]-3-pyridin-2-yl-3a,6a-dihydro-1H-pyrrolo[3,4-c]pyrazole-4,6-dione]: 5.73, 26.2 µM and 150 µM.
Take `COc1ccc(C2=NN(c3ccc(F)cc3)C3C(=O)N(CCc4ccc(F)cc4)C(=O)C23)c(O)c1` (stereo not drawn) [10a, 1-(4-Fluorophenyl)-5-[2-(4-fluorophenyl)ethyl]-3-(2-hydroxy-4-methoxyphenyl)-3a,6a-dihydro-1H-pyrrolo[3,4-c]pyrazole-4,6-dione]: in the data set with HIV-1IIIB, the “TI (in vitro therapeutic index, CC50 value/EC50 value)” value worked out at 2.51 and the EC50 is 8.52 µM. For the same molecule, the CC50 at 72 h in “Cytotoxicity assay (MTT)” was 21.4 µM.
With `COc1cccc(C2=NN(c3ccc(S(C)(=O)=O)cc3)C3C(=O)N(CCc4ccc(F)cc4)C(=O)C23)c1O` (stereo not drawn) [15f, 5-[2-(4-Fluorophenyl)ethyl]-3-(2-hydroxy-3-methoxyphenyl)-1-(4-methanesulfonylphenyl)-3a,6a-dihydro-1H-pyrrolo[3,4-c]pyrazole-4,6-dione], in the data set with HIV-1IIIB, the “TI (in vitro therapeutic index, CC50 value/EC50 value)” value was over 5.70 and the EC50 amounted to 65.3 µM. The CC50 at 72 h in “Cytotoxicity assay (MTT)” is over 372 µM.
With `O=C1C2C(c3cccc(Cl)c3O)=NN(c3ccc(F)cc3)C2C(=O)N1CCc1ccc(F)cc1` (stereo not drawn) [9d, 3-(3-Chloro-2-hydroxyphenyl)-1-(4-fluorophenyl)-5-[2-(4-fluorophenyl)ethyl]-3a,6a-dihydro-1H-pyrrolo[3,4-c]pyrazole-4,6-dione], in the data set on HIV-1IIIB, the “TI (in vitro therapeutic index, CC50 value/EC50 value)” value stood at 16.23 and the EC50 came out at 20.4 µM. In the data set “Cytotoxicity assay (MTT)”, the CC50 at 72 h came out at 332 µM.
`O=C1C2C(c3c(O)ccc4ccccc34)=NN(c3ccc(F)cc3)C2C(=O)N1CCc1ccc(F)cc1` (stereo not drawn) [compound 13, 1-(4-Fluorophenyl)-5-[2-(4-fluorophenyl)ethyl]-3-(2-hydroxynaphthalen-1-yl)-3a,6a-dihydro-1H-pyrrolo[3,4-c]pyrazole-4,6-dione]: in the data set with HIV-1IIIB, the “TI (in vitro therapeutic index, CC50 value/EC50 value)” value is 2.00 and the EC50 came out at 4.5 µM. Moreover, the CC50 at 72 h in “Cytotoxicity assay (MTT)” was determined as 9.03 µM.
On the same counts, the results for `COc1cc([N+](=O)[O-])cc(C2=NN(c3ccc(F)cc3)C3C(=O)N(CCc4ccc(F)cc4)C(=O)C23)c1O` (stereo not drawn) [compound 11, 1-(4-Fluorophenyl)-5-[2-(4-fluorophenyl)ethyl]-3-(2-hydroxy-3-methoxy-5-nitrophenyl)-3a,6a-dihydro-1H-pyrrolo[3,4-c]pyrazole-4,6-dione] are 2.15, 41.9 µM and 90.3 µM.
For the molecule `COc1cccc(C2=NN(c3ccc(F)cc3)C3C(=O)N(CCc4ccccc4F)C(=O)C23)c1O` (stereo not drawn) [16a, 1-(4-Fluorophenyl)-5-[2-(2-fluorophenyl)ethyl]-3-(2-hydroxy-3-methoxyphenyl)-3a,6a-dihydro-1H-pyrrolo[3,4-c]pyrazole-4,6-dione], in the data set with HIV-1IIIB, the “TI (in vitro therapeutic index, CC50 value/EC50 value)” value is given as 7.78 and the EC50 was determined as 2.52 µM. In the data set “Cytotoxicity assay (MTT)”, the CC50 at 72 h turned out to be 19.6 µM.
Turning to `COc1c(O)cccc1C1=NN(c2ccc(F)cc2)C2C(=O)N(CCc3ccc(F)cc3)C(=O)C12` (stereo not drawn) [7a, 1-(4-Fluorophenyl)-5-[2-(4-fluorophenyl)ethyl]-3-(3-hydroxy-2-methoxyphenyl)-3a,6a-dihydro-1H-pyrrolo[3,4-c]pyrazole-4,6-dione], in the data set with HIV-1IIIB, the “TI (in vitro therapeutic index, CC50 value/EC50 value)” value stood at 7.29 and the EC50 turned out to be 5.37 µM. Further, the CC50 at 72 h in “Cytotoxicity assay (MTT)” stood at 39.1 µM.
The matching figures for `COc1ccc(N2N=C(c3cccc(OC)c3O)C3C(=O)N(CCc4ccc(F)cc4)C(=O)C32)cc1` (stereo not drawn) [15j, 5-[2-(4-Fluorophenyl)-ethyl]-3-(2-hydroxy-3-methoxyphenyl)-1-(4-methoxyphenyl)-3a,6a-dihydro-1H-pyrrolo[3,4-c]pyrazole-4,6-dione]: over 19.34, 21.1 µM and over 409 µM.
On to `O=C1C2C(c3cccc4c3OCO4)=NN(c3ccc(F)cc3)C2C(=O)N1CCc1ccc(F)cc1` (stereo not drawn) [12b, 3-Benzo[1,3]dioxol-4-yl-1-(4-fluorophenyl)-5-[2-(4-fluorophenyl)ethyl]-3a,6a-dihydro-1H-pyrrolo[3,4-c]pyrazole-4,6-dione], for which, in the data set with HIV-1IIIB, the “TI (in vitro therapeutic index, CC50 value/EC50 value)” value was 31.29 and the EC50 came out at 7.11 µM. In addition, the CC50 at 72 h in the data set “Cytotoxicity assay (MTT)” stood at 222 µM.
Turning to `O=C1C2C(c3cccc([N+](=O)[O-])c3O)=NN(c3ccc(F)cc3)C2C(=O)N1CCc1ccc(F)cc1` (stereo not drawn) [9e, 1-(4-Fluorophenyl)-5-[2-(4-fluorophenyl)ethyl]-3-(2-hydroxy-3-nitrophenyl)-3a,6a-dihydro-1H-pyrrolo[3,4-c]pyrazole-4,6-dione], in the data set on HIV-1IIIB, the “TI (in vitro therapeutic index, CC50 value/EC50 value)” value turned out to be 6.56 and the EC50 was 7.55 µM. In addition, the CC50 at 72 h in the data set “Cytotoxicity assay (MTT)” turned out to be 49.5 µM.
For `COc1cccc(C2=NN(c3ccc(F)cc3)C3C(=O)N(CCc4cccc(F)c4)C(=O)C23)c1O` (stereo not drawn) [16b, 1-(4-Fluorophenyl)-5-[2-(3-fluorophenyl)ethyl]-3-(2-hydroxy-3-methoxyphenyl)-3a,6a-dihydro-1H-pyrrolo[3,4-c]pyrazole-4,6-dione], in the data set on HIV-1IIIB, the “TI (in vitro therapeutic index, CC50 value/EC50 value)” value turned out to be 11.01 and the EC50 came out at 13 µM. In the data set “Cytotoxicity assay (MTT)”, the CC50 at 72 h turned out to be 143 µM.
Turning to `O=C1C2C(c3cccc(F)c3O)=NN(c3ccc(F)cc3)C2C(=O)N1CCc1ccc(F)cc1` (stereo not drawn) [9b, 1-(4-Fluorophenyl)-5-[2-(4-fluorophenyl)ethyl]-3-(3-fluoro-2-hydroxyphenyl)-3a,6a-dihydro-1H-pyrrolo[3,4-c]pyrazole-4,6-dione], in the data set with HIV-1IIIB, the “TI (in vitro therapeutic index, CC50 value/EC50 value)” value amounted to 24.58 and the EC50 was found to be 5.74 µM. In addition, the CC50 at 72 h in “Cytotoxicity assay (MTT)” came to 141 µM.
On the same counts, the results for `COc1cccc(C2=NN(c3ccc(F)cc3)C3C(=O)N(CCc4ccc(F)cc4)C(=O)C23)c1OC` (stereo not drawn) [12a, 3-(2,3-Dimethoxyphenyl)-1-(4-fluorophenyl)-5-[2-(4-fluorophenyl)ethyl]-3a,6a-dihydro-1H-pyrrolo[3,4-c]pyrazole-4,6-dione] are over 36.56, 11.1 µM and over 407 µM.
Regarding `O=C1C2C(c3ccccc3)=NN(c3ccc(F)cc3)C2C(=O)N1CCc1ccc(F)cc1` (stereo not drawn) [7b, 1-(4-Fluorophenyl)-5-[2-(4-fluorophenyl)ethyl]-3-phenyl-3a,6a-dihydro-1H-pyrrolo[3,4-c]pyrazole-4,6-dione], in the data set on HIV-1IIIB, the “TI (in vitro therapeutic index, CC50 value/EC50 value)” value was 16.03 and the EC50 came out at 9.21 µM. Besides, in “Cytotoxicity assay (MTT)”, the CC50 at 72 h is 148 µM.
Consider `COc1cccc(C2=NN(c3ccc(F)cc3)C3C(=O)N(CCc4ccc(Cl)cc4)C(=O)C23)c1O` (stereo not drawn) [16c, 5-[2-(4-Chlorophenyl)-ethyl]-1-(4-fluorophenyl)-3-(2-hydroxy-3-methoxyphenyl)-3a,6a-dihydro-1H-pyrrolo[3,4-c]pyrazole-4,6-dione], for which, in the data set with HIV-1IIIB, the “TI (in vitro therapeutic index, CC50 value/EC50 value)” value is listed as 6.73 and the EC50 worked out at 10.4 µM. For the same molecule, the CC50 at 72 h in “Cytotoxicity assay (MTT)” amounted to 70.1 µM.
On the same counts, the results for `COc1ccc(CCN2C(=O)C3C(c4cccc(OC)c4O)=NN(c4ccc(F)cc4)C3C2=O)cc1` (stereo not drawn) [16e, 1-(4-Fluorophenyl)-3-(2-hydroxy-3-methoxyphenyl)-5-[2-(4-methoxyphenyl)ethyl]-3a,6a-dihydro-1H-pyrrolo[3,4-c]pyrazole-4,6-dione] are 2.52, 87.2 µM and 219 µM.
With `COc1cccc(C2=NN(c3ccccc3F)C3C(=O)N(CCc4ccc(F)cc4)C(=O)C23)c1O` (stereo not drawn) [15b, 1-(2-Fluorophenyl)-5-[2-(4-fluorophenyl)ethyl]-3-(2-hydroxy-3-methoxyphenyl)-3a,6a-dihydro-1H-pyrrolo[3,4-c]pyrazole-4,6-dione], in the data set on HIV-1IIIB, the “TI (in vitro therapeutic index, CC50 value/EC50 value)” value is over 3.71 and the EC50 was determined as 113 µM. For the same molecule, in “Cytotoxicity assay (MTT)”, the CC50 at 72 h was over 419 µM.
Take `COc1cccc(C2=NN(c3ccc(S(N)(=O)=O)cc3)C3C(=O)N(CCc4ccc(F)cc4)C(=O)C23)c1O` (stereo not drawn) [15g, 4-[5-[2-(4-Fluorophenyl)ethyl]-3-(2-hydroxy-3-methoxyphenyl)-4,6-dioxo-4,5,6,6a-tetrahydro-3aH-pyrrolo[3,4-c]pyrazol-1-yl]-benzenesulfonamide]: in the data set on HIV-1IIIB, the “TI (in vitro therapeutic index, CC50 value/EC50 value)” value is given as 1.51 and the EC50 was found to be 30.4 µM. In “Cytotoxicity assay (MTT)”, the CC50 at 72 h stood at 46 µM.
